Molecules are shown by their SMILES. Where a SMILES comes first, the peptide text is derived from it. [ ]: non-standard residue; d: D form. Arg(Me) = CNC(=N)NCCC[C@H](N)C(=O)O; d3Pal = N[C@H](Cc1cccnc1)C(=O)O; azaGly = NNC(=O)O A value given as a limit tells only on which side of the number the result lay.

The target in assay [1] is Mitotic checkpoint serine/threonine-protein kinase BUB1 (Homo sapiens, UniProt O43683). In kind it is functional, cell-based, HeLa.
In assay [2] the target is T1, Casein kinase I isoform delta (Homo sapiens, UniProt P48730). Type of assay: functional.
T1 sequence (P48730 whole entry, canonical isoform): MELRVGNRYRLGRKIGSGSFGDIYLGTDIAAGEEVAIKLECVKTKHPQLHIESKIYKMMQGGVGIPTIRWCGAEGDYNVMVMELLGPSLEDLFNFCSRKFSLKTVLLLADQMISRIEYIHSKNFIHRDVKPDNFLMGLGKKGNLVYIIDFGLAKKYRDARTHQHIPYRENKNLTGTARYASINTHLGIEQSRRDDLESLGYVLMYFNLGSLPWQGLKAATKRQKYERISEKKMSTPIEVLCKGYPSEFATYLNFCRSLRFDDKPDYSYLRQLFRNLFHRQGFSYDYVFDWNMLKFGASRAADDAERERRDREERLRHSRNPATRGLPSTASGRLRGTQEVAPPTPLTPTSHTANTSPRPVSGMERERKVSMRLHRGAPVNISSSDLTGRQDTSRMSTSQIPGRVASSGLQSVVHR
Assay [3] concerns the target T2, Casein kinase I isoform alpha (Homo sapiens, UniProt P48729). The experiment in a line: Affinity Phenotypic Cellular interaction: (Western Blot assay (inhibition of CSNK1D/E-mediated phosphorylation of DVL3, analyzed by change in phosphorylation-dependent mobility shift)) EUB0001205a CSNK1A1. Type of assay: functional. Further details: mode of action Inhibitor, recommended concentration 1 uM.

Assay [4] deals with T2, Casein kinase I isoform alpha. Type of assay: functional.
In assay [5] the target is T1, Casein kinase I isoform delta. As to the kind of experiment: Affinity Phenotypic Cellular interaction: (Western Blot assay (inhibition of CSNK1D/E-mediated phosphorylation of DVL3, analyzed by change in phosphorylation-dependent mobility shift)) EUB0001205a CSNK1D. The arrangement: mode of action Inhibitor, recommended concentration 1 uM. Type of assay: functional.

For assay [6], the target named is T3, Casein kinase I isoform epsilon (Homo sapiens, UniProt P49674). The experiment in a line: Affinity Phenotypic Cellular interaction: (Western Blot assay (inhibition of CSNK1D/E-mediated phosphorylation of DVL3, analyzed by change in phosphorylation-dependent mobility shift)) EUB0001205a CSNK1E. The arrangement: mode of action Inhibitor, recommended concentration 1 uM. In kind it is functional.
T3 sequence (P49674 whole entry, canonical isoform): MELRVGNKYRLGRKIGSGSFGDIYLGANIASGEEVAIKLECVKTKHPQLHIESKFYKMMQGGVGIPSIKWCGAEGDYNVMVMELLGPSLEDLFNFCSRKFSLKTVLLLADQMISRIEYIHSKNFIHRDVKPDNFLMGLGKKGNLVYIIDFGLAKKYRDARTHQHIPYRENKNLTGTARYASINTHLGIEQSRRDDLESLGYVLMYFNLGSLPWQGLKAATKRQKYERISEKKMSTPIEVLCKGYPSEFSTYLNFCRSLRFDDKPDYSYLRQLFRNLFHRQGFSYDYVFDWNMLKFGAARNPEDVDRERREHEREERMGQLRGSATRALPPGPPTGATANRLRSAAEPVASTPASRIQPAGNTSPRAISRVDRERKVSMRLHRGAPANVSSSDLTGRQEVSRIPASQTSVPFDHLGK

Assay [7] deals with T3, Casein kinase I isoform epsilon. In kind it is functional.
Assay [8] has as its target T2, Casein kinase I isoform alpha. Type of assay: functional, cell-based, T-REx-293.
Assay [9] has as its target T4, Leucine-rich repeat serine/threonine-protein kinase 2 (Homo sapiens, UniProt Q5S007, G2019S). Type of assay: functional, subcellular, Brain, lysate.
Assay [10] addresses T4, Leucine-rich repeat serine/threonine-protein kinase 2. Type of assay: functional, subcellular, Brain, lysate. The source holds these as a separate data set.
Assay [11] has as its target KiSS-1 receptor (Homo sapiens, UniProt Q969F8). The experiment in a line: Affinity Phenotypic Cellular interaction: (Agonist activity for hGPR54 (C-terminal ethyl amide)) EUB0001072a KISS1R. Type of assay: functional. The arrangement: mode of action Negative control for KISS1-305, recommended concentration 1 uM.
For assay [12], the target named is Activin receptor type-1 (Homo sapiens, UniProt Q04771). As to the kind of experiment: Affinity Phenotypic Cellular interaction: (Western Blot (inhibition of ALK2 catalysed phosphorylation of SMAD1/5/8, BMP branch signalling)) EUB0001184b ACVRL1. In kind it is functional. Further details: mode of action Inhibitor, recommended concentration 1 uM. Background: Immunoblotting shows a protein as a band on a membrane.

For assay [13], the target named is T5, Cyclin-dependent kinase 8 (Homo sapiens, UniProt P49336). The experiment in a line: Affinity Phenotypic Cellular interaction: (Reporter-based luciferase assay (in PA-1 cell line bearing activating WNT-pathway mutations)) EUB0001623a CDK8. Type of assay: functional. The arrangement: mode of action Inhibitor, recommended concentration 100 nM.
T5 sequence (P49336 whole entry, looked up, change not shown): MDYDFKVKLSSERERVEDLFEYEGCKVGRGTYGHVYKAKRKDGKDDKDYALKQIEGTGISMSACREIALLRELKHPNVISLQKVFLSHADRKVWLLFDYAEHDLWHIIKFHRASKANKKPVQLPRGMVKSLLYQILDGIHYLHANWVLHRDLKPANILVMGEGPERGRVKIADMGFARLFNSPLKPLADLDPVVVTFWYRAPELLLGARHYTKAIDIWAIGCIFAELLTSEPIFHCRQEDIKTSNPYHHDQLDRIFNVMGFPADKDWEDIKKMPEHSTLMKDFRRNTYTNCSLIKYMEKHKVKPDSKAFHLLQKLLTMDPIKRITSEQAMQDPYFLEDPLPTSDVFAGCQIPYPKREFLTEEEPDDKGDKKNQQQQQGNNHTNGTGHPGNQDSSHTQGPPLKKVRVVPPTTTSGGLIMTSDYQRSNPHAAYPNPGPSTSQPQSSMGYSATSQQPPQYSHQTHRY
Assay [14] concerns the target T5, Cyclin-dependent kinase 8. The experiment in a line: Affinity Phenotypic Cellular interaction: (Reporter-based luciferase assay (in LS174T cell line (xcexb2-catenin mutant) bearing activating WNT-pathway mutations)) EUB0001623a CDK8. Type of assay: functional. Further details: mode of action Inhibitor, recommended concentration 100 nM.
For assay [15], the target named is T5, Cyclin-dependent kinase 8. As to the kind of experiment: Affinity Phenotypic Cellular interaction: (Reporter-based luciferase assay (in COLO205 (APC mutant) bearing activating WNT-pathway mutations)) EUB0001623a CDK8. To be noted: colo 205. Further details: mode of action Inhibitor, recommended concentration 100 nM. Type of assay: functional, cell-based.
Assay [16] addresses Interleukin-1 receptor-associated kinase 4 (Homo sapiens, UniProt Q9NWZ3). The experiment in a line: Affinity Phenotypic Cellular interaction: (R848-induced IL-6 production in human whole blood) EUB0001558a IRAK4. Type of assay: functional, tissue-based. The arrangement: mode of action Inhibitor, recommended concentration 1 uM.
Assay [17] concerns the target Cyclin-dependent kinase 13 (Homo sapiens, UniProt Q14004). As to the kind of experiment: Affinity Phenotypic Cellular interaction: (In-Cell western blot (using MDA-MB-231 cells)) EUB0001632a CDK13. Type of assay: functional, cell-based. The arrangement: mode of action Inhibitor, recommended concentration 1 uM.
In assay [18] the target is T6, RAF proto-oncogene serine/threonine-protein kinase (Homo sapiens, UniProt P04049). The experiment in a line: Affinity Phenotypic Cellular interaction: (Western blot assay (phosphorylation of ERK in MALME-3M cells expressing BRAF V600E/RAS wt)) EUB0000655a RAF1. In kind it is functional, cell-based. The arrangement: mode of action Inhibitor, recommended concentration 1 uM.
T6 sequence (P04049 whole entry): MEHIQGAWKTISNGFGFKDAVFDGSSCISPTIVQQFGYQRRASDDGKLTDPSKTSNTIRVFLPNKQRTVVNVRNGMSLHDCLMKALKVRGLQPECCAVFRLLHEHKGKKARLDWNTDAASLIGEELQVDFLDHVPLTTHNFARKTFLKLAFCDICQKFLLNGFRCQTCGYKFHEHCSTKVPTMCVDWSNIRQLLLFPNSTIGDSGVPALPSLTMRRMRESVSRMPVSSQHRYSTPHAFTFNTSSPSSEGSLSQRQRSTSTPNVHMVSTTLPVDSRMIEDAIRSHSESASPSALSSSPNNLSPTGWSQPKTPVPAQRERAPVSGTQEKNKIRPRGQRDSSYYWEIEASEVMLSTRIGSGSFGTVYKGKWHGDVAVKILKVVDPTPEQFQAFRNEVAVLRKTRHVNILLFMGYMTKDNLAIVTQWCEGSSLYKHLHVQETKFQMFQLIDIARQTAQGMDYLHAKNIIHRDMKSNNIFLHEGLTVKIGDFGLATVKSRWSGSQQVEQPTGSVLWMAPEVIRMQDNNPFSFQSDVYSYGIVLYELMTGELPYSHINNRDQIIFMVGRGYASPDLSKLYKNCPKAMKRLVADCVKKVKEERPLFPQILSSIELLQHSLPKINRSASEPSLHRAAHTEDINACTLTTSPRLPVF

Assay [19] addresses T6, RAF proto-oncogene serine/threonine-protein kinase. The experiment in a line: Affinity Phenotypic Cellular interaction: (Western blot assay (phosphorylation of ERK in SKMEL2 cells expressing BRAF wt/N-Ras2(Q61R))) EUB0000655a RAF1. Further details: mode of action Inhibitor, recommended concentration 1 uM. In kind it is functional, cell-based, SK-MEL-2.
Assay [20] shares this target. The experiment in a line: Affinity Phenotypic Cellular interaction: (Western blot assay (phosphorylation of ERK in PREC cells expressing BRAF/RAS wt)) EUB0000655a RAF1. In kind it is functional, cell-based. The arrangement: mode of action Inhibitor, recommended concentration 1 uM.
For assay [21] the target is unchanged. The experiment in a line: Affinity Phenotypic Cellular interaction: (Western blot assay (phosphorylation of ERK in HFF cells expressing BRAF/RAS wt)) EUB0000655a RAF1. Further details: mode of action Inhibitor, recommended concentration 1 uM. In kind it is functional, cell-based.
Assay [22] shares this target. As to the kind of experiment: Affinity Phenotypic Cellular interaction: (Western blot assay (phosphorylation of ERK in HT-1080 cells expressing BRAF wt/N-Ras2(Q61K))) EUB0000655a RAF1. The arrangement: mode of action Inhibitor, recommended concentration 1 uM. Type of assay: functional, cell-based.
The target is the same in assay [23]. The experiment in a line: Affinity Phenotypic Cellular interaction: (Western blot assay (phosphorylation of ERK in […] cells expressing BRAF V600E/RAS wt)) EUB0000655a RAF1. In kind it is functional, cell-based, COLO 205. The arrangement: mode of action Inhibitor, recommended concentration 1 uM.
Assay [24] has the same target. As to the kind of experiment: Affinity Phenotypic Cellular interaction: (Western blot assay (phosphorylation of ERK in HT-29 cells expressing BRAF V600E/RAS wt)) EUB0000655a RAF1. In kind it is functional, cell-based. Further details: mode of action Inhibitor, recommended concentration 1 uM.
Assay [25] has the same target. The experiment in a line: Affinity Phenotypic Cellular interaction: (Western blot assay (phosphorylation of ERK in HCT-116 cells expressing BRAF wt/K-Ras2(G13D))) EUB0000655a RAF1. Further details: mode of action Inhibitor, recommended concentration 1 uM. In kind it is functional, cell-based.
Assay [26] has the same target. The experiment in a line: Affinity Phenotypic Cellular interaction: (Western blot assay (phosphorylation of ERK in A375P cells expressing BRAF V600E/RAS wt)) EUB0000655a RAF1. Type of assay: functional, cell-based. The arrangement: mode of action Inhibitor, recommended concentration 1 uM.
For assay [27] the target is unchanged. As to the kind of experiment: Affinity Phenotypic Cellular interaction: (Western blot assay (phosphorylation of ERK in HMEC cells expressing BRAF/RAS wt)) EUB0000655a RAF1. Type of assay: functional, cell-based. Further details: mode of action Inhibitor, recommended concentration 1 uM.
The target in assay [28] is Inhibitor of nuclear factor kappa-B kinase subunit beta (Homo sapiens, UniProt O14920). The experiment in a line: Affinity Phenotypic Cellular interaction: (Inhibition of expression of ICAM-1 in HeLa cells) EUB0001492b IKBKB. Type of assay: functional, cell-based. The arrangement: mode of action Inhibitor, recommended concentration 1 uM.

T2 sequence (P48729 whole entry, canonical isoform): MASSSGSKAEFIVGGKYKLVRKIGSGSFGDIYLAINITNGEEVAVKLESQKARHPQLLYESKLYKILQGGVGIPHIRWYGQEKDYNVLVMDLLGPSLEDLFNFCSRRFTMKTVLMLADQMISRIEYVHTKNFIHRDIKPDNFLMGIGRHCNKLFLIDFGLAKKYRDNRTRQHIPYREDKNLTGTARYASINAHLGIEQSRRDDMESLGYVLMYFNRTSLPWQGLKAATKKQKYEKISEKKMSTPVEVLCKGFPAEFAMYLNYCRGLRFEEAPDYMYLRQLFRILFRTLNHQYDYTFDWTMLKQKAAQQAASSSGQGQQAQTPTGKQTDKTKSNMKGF
T4 sequence (Q5S007 whole entry G2019S): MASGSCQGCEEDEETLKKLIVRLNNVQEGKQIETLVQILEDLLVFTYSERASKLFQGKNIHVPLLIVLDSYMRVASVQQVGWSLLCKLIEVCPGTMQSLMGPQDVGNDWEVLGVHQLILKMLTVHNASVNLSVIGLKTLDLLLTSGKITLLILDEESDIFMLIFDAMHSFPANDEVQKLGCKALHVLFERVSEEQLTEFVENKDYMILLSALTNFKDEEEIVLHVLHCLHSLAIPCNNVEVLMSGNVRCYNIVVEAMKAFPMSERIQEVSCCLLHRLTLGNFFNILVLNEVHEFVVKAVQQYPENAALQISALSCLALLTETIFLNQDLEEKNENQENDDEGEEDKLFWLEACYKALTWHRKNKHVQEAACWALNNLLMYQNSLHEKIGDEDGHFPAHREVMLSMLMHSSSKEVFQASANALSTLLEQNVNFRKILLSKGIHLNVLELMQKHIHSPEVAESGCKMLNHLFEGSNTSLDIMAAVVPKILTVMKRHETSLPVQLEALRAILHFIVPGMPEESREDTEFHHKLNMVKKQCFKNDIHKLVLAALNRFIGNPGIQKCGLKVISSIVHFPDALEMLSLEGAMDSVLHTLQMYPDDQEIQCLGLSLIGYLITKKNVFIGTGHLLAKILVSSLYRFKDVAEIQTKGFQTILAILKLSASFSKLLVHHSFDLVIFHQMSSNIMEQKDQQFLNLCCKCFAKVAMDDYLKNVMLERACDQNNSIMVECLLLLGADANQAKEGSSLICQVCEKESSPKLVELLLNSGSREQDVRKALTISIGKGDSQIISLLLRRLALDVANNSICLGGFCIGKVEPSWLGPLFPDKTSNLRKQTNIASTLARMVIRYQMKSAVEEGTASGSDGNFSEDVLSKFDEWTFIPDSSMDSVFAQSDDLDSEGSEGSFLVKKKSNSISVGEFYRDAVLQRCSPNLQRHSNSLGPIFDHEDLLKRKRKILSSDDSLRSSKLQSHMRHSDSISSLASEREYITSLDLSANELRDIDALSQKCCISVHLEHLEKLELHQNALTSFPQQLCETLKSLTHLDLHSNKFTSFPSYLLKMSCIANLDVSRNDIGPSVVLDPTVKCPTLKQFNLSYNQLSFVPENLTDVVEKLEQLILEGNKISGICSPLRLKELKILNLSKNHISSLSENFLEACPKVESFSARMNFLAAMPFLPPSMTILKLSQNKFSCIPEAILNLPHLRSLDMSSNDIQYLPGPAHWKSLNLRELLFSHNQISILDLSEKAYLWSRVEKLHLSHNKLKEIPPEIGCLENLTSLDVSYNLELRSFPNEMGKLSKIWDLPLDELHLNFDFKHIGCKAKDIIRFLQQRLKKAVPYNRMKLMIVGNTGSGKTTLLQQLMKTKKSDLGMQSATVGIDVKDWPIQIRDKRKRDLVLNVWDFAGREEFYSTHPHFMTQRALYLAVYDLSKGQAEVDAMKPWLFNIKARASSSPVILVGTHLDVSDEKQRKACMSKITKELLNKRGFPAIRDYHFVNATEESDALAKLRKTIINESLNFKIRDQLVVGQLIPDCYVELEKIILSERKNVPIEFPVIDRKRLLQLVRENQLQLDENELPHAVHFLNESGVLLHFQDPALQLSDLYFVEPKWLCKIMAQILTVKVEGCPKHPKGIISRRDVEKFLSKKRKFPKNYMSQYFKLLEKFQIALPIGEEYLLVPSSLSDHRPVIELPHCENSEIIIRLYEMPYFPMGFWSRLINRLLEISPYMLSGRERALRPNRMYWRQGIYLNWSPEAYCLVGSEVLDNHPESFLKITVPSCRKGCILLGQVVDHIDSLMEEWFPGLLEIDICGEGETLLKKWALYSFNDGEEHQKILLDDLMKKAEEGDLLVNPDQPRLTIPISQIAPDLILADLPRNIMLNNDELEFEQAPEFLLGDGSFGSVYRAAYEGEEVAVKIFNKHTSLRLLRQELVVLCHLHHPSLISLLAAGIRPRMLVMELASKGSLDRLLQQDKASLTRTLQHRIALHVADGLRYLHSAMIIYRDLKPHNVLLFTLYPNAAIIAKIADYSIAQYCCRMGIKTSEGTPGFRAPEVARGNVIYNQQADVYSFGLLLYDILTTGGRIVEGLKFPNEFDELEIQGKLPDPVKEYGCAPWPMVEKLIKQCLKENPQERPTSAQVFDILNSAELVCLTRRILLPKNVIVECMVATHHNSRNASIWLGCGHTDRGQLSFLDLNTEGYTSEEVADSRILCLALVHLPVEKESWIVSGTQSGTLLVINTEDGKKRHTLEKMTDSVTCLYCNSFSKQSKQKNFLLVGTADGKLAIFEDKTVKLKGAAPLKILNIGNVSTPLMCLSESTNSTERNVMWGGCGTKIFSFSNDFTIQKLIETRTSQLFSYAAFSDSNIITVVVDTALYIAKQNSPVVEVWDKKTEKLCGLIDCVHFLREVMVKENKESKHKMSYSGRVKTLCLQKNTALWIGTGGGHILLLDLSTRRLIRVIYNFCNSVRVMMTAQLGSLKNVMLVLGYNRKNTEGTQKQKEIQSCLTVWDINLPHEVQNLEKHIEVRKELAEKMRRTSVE

Broadly, the IC50 is the midpoint of a concentration-inhibition curve. Low readings indicate greater potency, high ones weaker potency. The compound `COc1cnccc1Nc1nc(-c2nn(Cc3c(F)cc(OCCO)cc3F)c3ccccc23)ncc1OC` gave an IC50 in assay [1] of over 0.01 µM.

What is called EC50 is the concentration giving half of the maximal effect. As for `CN1CCC(F)(Cn2cnc(-c3ccc(F)cn3)c2-c2ccnc3[nH]ccc23)CC1`, the IC50 in [2] was 1.6 µM; in assay [4] it was 1.6 µM; in assay [7], 1.6 µM; in assay [8], 10.5 µM. In addition, the half-maximal effective concentration (EC50) in assay [3], in assay [5] and in assay [6] was 0.2 µM each time.

In the case of `N#Cc1cccc(-c2c[nH]c3ncnc(N4CCOCC4)c23)c1`, the half-inhibitory concentration (IC50) in assay [9] was determined as 0.103 µM; in assay [10], 0.021 µM.

The compound `CNC(=N)NCCC[C@H](NC(=O)[C@H](CC(C)C)NC(=O)NNC(=O)[C@H](Cc1ccccc1)NC(=O)[C@H](CO)NC(=O)[C@H](CC(N)=O)NC(=O)[C@@H](Cc1cccnc1)NC(=O)[C@H](N)Cc1ccc(O)cc1)C(=O)NCC(N)=O` [KISS1-543] (H-[dY][d3Pal]NSF[azaGly]L[Arg(Me)]G-NH2) showed an EC50 in assay [11] of over 10 µM.

In assay [12], `COc1cc(-c2cncc(-c3ccc(N4CCN(C(C)C)CC4)cc3)c2C)cc(F)c1C(N)=O` had an EC50 of under 0.1 µM.

As to `Cc1n[nH]c2ncc(C(=O)N3CCC[C@H]3c3ccc(Cl)cc3)cc12`, the IC50 in [13] was found to be 0.052 µM; in assay [14], 32 µM; in [15] it was 0.009 µM.

In assay [16], `CC(C)(O)[C@H](F)CN1Cc2cc(NC(=O)c3cnn4cccnc34)c(N3CCOCC3)cc2C1=O` returned an IC50 of 0.19 µM.

In [17], `Cn1cc(-n2cnc3c(NCc4nc5cc(Cl)c(Cl)cc5[nH]4)nc(N4CCOCC4)nc32)cn1` returned an EC50 of 0.105 µM.

Regarding `CN(C)CCOc1ccc(-c2nc(-c3ccncc3)c(-c3ccc4c(c3)CC/C4=N\O)[nH]2)cc1` [SB590885], the half-inhibitory concentration (IC50) in [18] is 0.19 µM; in assay [19], 1.5 µM; in assay [20], 6.1 µM; in [21] it was 11 µM; in assay [22], over 13 µM; in assay [23], 0.028 µM. Also, the IC50 in assay [24] was 0.058 µM; in assay [25], 1.1 µM; in assay [26], 0.29 µM; in assay [27], 5.1 µM.

The compound `CCC(F)(F)c1cc(N2CCC(S(C)(=O)=O)CC2)nc2sc(C(N)=O)c(N)c12` [BI-605906] came in with an EC50 in [28] of 0.7 µM.
